Measurements as given in patent publication US9556190B2, “Piperidinyloxy lactone orexin receptor antagonists” (MERCK SHARP & DOHME CORP., priority 2013, dated 2017).

Columns and labels:
human orexin-2 receptor = human orexin-2 receptor (Homo sapiens (Human), UniProt O43614); assay: FLIPR Ca2+ Flux Assay, CHO cells expressing orexin-2 receptor; assay type: cell-based; settings: 70 pM Ala-6,12 orexin-A agonist, read-out: hOX2R FLIPR IC50
Procedure: The utility of the compounds in accordance with the present invention as orexin receptor OX1R and/or OX2R antagonists may be readily determined without undue experimentation by methodology well known in the art, including the “FLIPR Ca^2+ Flux Assay” (Okumura et al., Biochem. Biophys. Res. Comm. 280:976-981, 2001). In a typical experiment the OX1 and OX2 receptor antagonistic activity of the compounds of the present invention was determined in accordance with the following experimental method. For intracellular calcium measurements, Chinese hamster ovary (CHO) cells expressing the rat orexin-1 receptor or the human orexin-2 receptor, are grown in Iscove's modified DMEM containing 2 mM L-glutamine, […], 1% hypoxanthine-thymidine supplement, 100 U/ml penicillin, 100 μg/ml streptomycin and 10% heat-inactivated fetal calf serum (FCS). The cells are seeded at 20,000 cells/well into Becton-Dickinson black 384-well clear bottom sterile plates coated with poly-D-lysine. All reagents were from GIBCO-Invitrogen Corp. The seeded plates are incubated overnight at 37° C. and 5% CO2. Ala-6,12 human orexin-A as the agonist is prepared as a 1 mM stock solution in 1% bovine serum albumin (BSA) and diluted in assay buffer (HBSS containing 20 mM HEPES, 0.1% BSA and 2.5 mM probenecid, pH7.4) for use in the assay at a final concentration of 70 pM. Test compounds are prepared as 10 mM stock solution in DMSO, then diluted in 384-well plates, first in DMSO, then assay buffer. On the day of the assay, cells are washed 3 times with 100 μl assay buffer and then incubated for 60 min (37° C., 5% CO2) in 60 μl assay buffer containing 1 μM Fluo-4AM ester, 0.02% pluronic acid, and 1% BSA. The dye loading solution is then aspirated and cells are washed 3 times with 100 μl assay buffer. 30 μl of that same buffer is left in each well. Within the Fluorescent Imaging Plate Reader (FLIPR, Molecular Devices), test compounds are added to the plate in a volume of 25 μl, incubated for 5 min and finally 25 μl of agonist is added. Fluorescence is measured for each well at 1 second intervals for 5 minutes and the height of each fluorescence peak is compared to the height of the fluorescence peak induced by 70 pM Ala-6,12 orexin-A with buffer in place of antagonist. For each antagonist, IC50 value (the concentration of compound needed to inhibit 50% of the agonist response) is determined. Alternatively, compound potency can be assessed by a radioligand binding assay (described in Bergman et. al. Bioorg. Med. Chem. Lett. 2008, 18, 1425-1430) in which the inhibition constant (Ki) is determined in membranes prepared from CHO cells expressing either the OX1 or OX2 receptor. The intrinsic orexin receptor antagonist activity of a compound which may be used in the present invention may be determined by these assays.

hOX1R = hOX1R (Homo sapiens, UniProt O43613); assay: FLIPR Ca2+ Flux Assay, CHO cells expressing orexin-1 receptor; assay type: cell-based; settings: 70 pM Ala-6,12 orexin-A agonist

Sequence of human orexin-2 receptor (O43614 whole entry): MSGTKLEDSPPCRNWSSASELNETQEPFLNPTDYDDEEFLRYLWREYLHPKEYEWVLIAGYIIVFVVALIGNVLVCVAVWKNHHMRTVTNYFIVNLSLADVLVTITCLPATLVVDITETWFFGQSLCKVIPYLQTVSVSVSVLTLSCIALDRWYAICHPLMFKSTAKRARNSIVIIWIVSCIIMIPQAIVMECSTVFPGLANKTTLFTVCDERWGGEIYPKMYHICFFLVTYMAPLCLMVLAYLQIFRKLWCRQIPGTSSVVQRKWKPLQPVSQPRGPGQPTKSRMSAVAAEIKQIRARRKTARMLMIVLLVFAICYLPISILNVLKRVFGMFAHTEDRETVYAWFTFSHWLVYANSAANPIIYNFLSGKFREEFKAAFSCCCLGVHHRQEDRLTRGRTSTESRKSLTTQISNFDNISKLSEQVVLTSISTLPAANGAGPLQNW

| Compound | IC50 (human orexin-2 receptor) [µM] | IC50 (hOX1R) [µM] |
| --- | --- | --- |
| C[C@@H]1CC[C@@H](Oc2nccc3c2C(=O)OC3(C)C)CN1C(=O)c1ccccc1-n1nccn1 [Example 1, 1,1-Dimethyl-4-{[(3R,6R)-6-methyl-1-{[2-(2H-1,2,3-triazol-2-yl)phenyl]carbonyl}piperidin-3-yl]oxy}furo[3,4-c]pyridin-3(1H)-one] | 0.02 | 8.29 |
| C[C@@H]1CC[C@@H](Oc2nccc3c2C(=O)OC3(C)C)CN1C(=O)c1c(F)cccc1-n1nccn1 [Example 2, 4-{[(3R,6R)-1-{[2-Fluoro-6-(2H-1,2,3-triazol-2-yl)phenyl]carbonyl}-6-methylpiperidin-3-yl]oxy}-1,1-dimethylfuro[3,4-c]pyridin-3(1H)-one] | 0.044 | 10 |
| C[C@@H]1CC[C@@H](Oc2nccc3c2C(=O)OC3(C)C)CN1C(=O)c1cc(Cl)ccc1-n1nccn1 [Example 3, 4-{[(3R,6R)-1-{[5-chloro-2-(2H-1,2,3-triazol-2-yl)phenyl]carbonyl}-6-methylpiperidin-3-yl]oxy}-1,1-dimethylfuro[3,4-c]pyridin-3(1H)-one] | 0.042 | 3.74 |
| C[C@@H]1CC[C@@H](Oc2nccc3c2C(=O)OC3(C)C)CN1C(=O)c1cc(F)ccc1-n1nccn1 [Example 4, 4-{[(3R,6R)-1-{[5-fluoro-2-(2H-1,2,3-triazol-2-yl)phenyl]carbonyl}-6-methylpiperidin-3-yl]oxy}-1,1-dimethylfuro[3,4-c]pyridin-3(1H)-one] | 0.023 | 10 |
| Cc1ccc(-n2nccn2)c(C(=O)N2C[C@H](Oc3nccc4c3C(=O)OC4(C)C)CC[C@H]2C)c1 [Example 5, 1,1-dimethyl-4-{[(3R,6R)-6-methyl-1-{[5-methyl-2-(2H-1,2,3-triazol-2-yl)phenyl]carbonyl}piperidin-3-yl]oxy}furo[3,4-c]pyridin-3(1H)-one] | 0.054 | 2.51 |
| C[C@@H]1CC[C@@H](Oc2nccc3c2C(=O)OC3(C)C)CN1C(=O)c1c(F)cccc1-n1nccn1 [Example 6, 4-(((3R,6R)-1-(2-fluoro-6-(2H-1,2,3-triazol-2-yl)benzoyl)-6-methylpiperidin-3-yl)oxy)-1,1-dimethylfuro[3,4-c]pyridin-3(1H)-one] | 0.013 | 2.71 |
| C[C@@H]1CC[C@@H](Oc2nccc3c2C(=O)OC3(C)C)CN1C(=O)c1cccc(F)c1-n1nccn1 [Example 7, 4-{[(3R,6R)-1-{[3-fluoro-2-(2H-1,2,3-triazol-2-yl)phenyl]carbonyl}-6-methylpiperidin-3-yl]oxy}-1,1-dimethylfuro[3,4-c]pyridin-3(1H)-one] | 0.132 | 10 |
| Cc1cccc(C(=O)N2C[C@H](Oc3nccc4c3C(=O)OC4(C)C)CC[C@H]2C)c1-n1nccn1 [Example 8, 1,1-dimethyl-4-{[(3R,6R)-6-methyl-1-{[3-methyl-2-(2H-1,2,3-triazol-2-yl)phenyl]carbonyl}piperidin-3-yl]oxy}furo[3,4-c]pyridin-3(1H)-one] | 0.043 | 3.09 |
| C[C@@H]1CC[C@@H](Oc2nccc3c2C(=O)OC3(C)C)CN1C(=O)c1ccc(Cl)cc1-n1nccn1 [Example 9, 4-{[(3R,6R)-1-{[4-chloro-2-(2H-1,2,3-triazol-2-yl)phenyl]carbonyl}-6-methylpiperidin-3-yl]oxy}-1,1-dimethylfuro[3,4-c]pyridin-3(1H)-one] | 0.054 | 3.74 |
| C[C@@H]1CC[C@@H](Oc2nccc3c2C(=O)OC3(C)C)CN1C(=O)c1ccc(F)cc1-n1nccn1 [Example 10, 4-{[(3R,6R)-1-{[4-fluoro-2-(2H-1,2,3-triazol-2-yl)phenyl]carbonyl}-6-methylpiperidin-3-yl]oxy}-1,1-dimethylfuro[3,4-c]pyridin-3(1H)-one] | 0.059 | 10 |
| COc1ccc(C(=O)N2C[C@H](Oc3nccc4c3C(=O)OC4(C)C)CC[C@H]2C)c(-n2nccn2)c1 [Example 11, 4-{[(3R,6R)-1-{[4-methoxy-2-(2H-1,2,3-triazol-2-yl)phenyl]carbonyl}-6-methylpiperidin-3-yl]oxy}-1,1-dimethylfuro[3,4-c]pyridin-3(1H)-one] | 0.147 | 10 |
| COc1ccc(C(=O)N2C[C@H](Oc3nccc4c3C(=O)OC4(C)C)CC[C@H]2C)c(-n2nccn2)n1 [Example 12, 4-{[(3R,6R)-1-{[6-methoxy-2-(2H-1,2,3-triazol-2-yl)pyridin-3-yl]carbonyl}-6-methylpiperidin-3-yl]oxy}-1,1-dimethylfuro[3,4-c]pyridin-3(1H)-one] | 0.195 | 10 |
| Cc1nc(-c2cccc(F)c2C(=O)N2C[C@H](Oc3nccc4c3C(=O)OC4(C)C)CC[C@H]2C)no1 [Example 13, 4-{[(3R,6R)-1-{[2-fluoro-6-(5-methyl-1,2,4-oxadiazol-3-yl)phenyl]carbonyl}-6-methylpiperidin-3-yl]oxy}-1,1-dimethylfuro[3,4-c]pyridin-3(1H)-one] | 0.065 | ≥ 10 |
| Cc1nc(-c2ccc(F)cc2C(=O)N2C[C@H](Oc3nccc4c3C(=O)OC4(C)C)CC[C@H]2C)no1 [Example 14, 4-{[(3R,6R)-1-{[5-fluoro-2-(5-methyl-1,2,4-oxadiazol-3-yl)phenyl]carbonyl}-6-methylpiperidin-3-yl]oxy}-1,1-dimethylfuro[3,4-c]pyridin-3(1H)-one] | 0.076 | 10 |
| Cc1nc(-c2cc(F)ccc2C(=O)N2C[C@H](Oc3nccc4c3C(=O)OC4(C)C)CC[C@H]2C)no1 [Example 15, 4-{[(3R,6R)-1-{[4-fluoro-2-(5-methyl-1,2,4-oxadiazol-3-yl)phenyl]carbonyl}-6-methylpiperidin-3-yl]oxy}-1,1-dimethylfuro[3,4-c]pyridin-3(1H)-one] | 0.232 | 10 |
| Cc1nc(-c2c(F)cccc2C(=O)N2C[C@H](Oc3nccc4c3C(=O)OC4(C)C)CC[C@H]2C)no1 [Example 16, 4-{[(3R,6R)-1-{[3-fluoro-2-(5-methyl-1,2,4-oxadiazol-3-yl)phenyl]carbonyl}-6-methylpiperidin-3-yl]oxy}-1,1-dimethylfuro[3,4-c]pyridin-3(1H)-one] | 0.09 | 10 |
| Cc1noc(-c2cccc(F)c2C(=O)N2C[C@H](Oc3nccc4c3C(=O)OC4(C)C)CC[C@H]2C)n1 [Example 17, 4-{[(3R,6R)-1-{[2-fluoro-6-(3-methyl-1,2,4-oxadiazol-5-yl)phenyl]carbonyl}-6-methylpiperidin-3-yl]oxy}-1,1-dimethylfuro[3,4-c]pyridin-3(1H)-one] | 0.102 | 10 |
| Cc1noc(-c2ccc(F)cc2C(=O)N2C[C@H](Oc3nccc4c3C(=O)OC4(C)C)CC[C@H]2C)n1 [Example 18, 4-{[(3R,6R)-1-{[5-fluoro-2-(3-methyl-1,2,4-oxadiazol-5-yl)phenyl]carbonyl}-6-methylpiperidin-3-yl]oxy}-1,1-dimethylfuro[3,4-c]pyridin-3(1H)-one] | 0.09 | 10 |
| Cc1noc(-c2cc(F)ccc2C(=O)N2C[C@H](Oc3nccc4c3C(=O)OC4(C)C)CC[C@H]2C)n1 [Example 19, 4-{[(3R,6R)-1-{[4-fluoro-2-(3-methyl-1,2,4-oxadiazol-5-yl)phenyl]carbonyl}-6-methylpiperidin-3-yl]oxy}-1,1-dimethylfuro[3,4-c]pyridin-3(1H)-one] | 0.382 | 10 |
| C[C@@H]1CC[C@@H](Oc2nccc3c2C(=O)OC3(C)C)CN1C(=O)c1ccsc1-n1nccn1 [Example 20, 1,1-Dimethyl-4-{[(3R,6R)-6-methyl-1-{[2-(2H-1,2,3-triazol-2-yl)thiophen-3-yl]carbonyl}piperidin-3-yl]oxy}furo[3,4-c]pyridin-3(1H)-one] | 0.039 | 10 |
| C[C@@H]1CC[C@@H](Oc2nccc3c2C(=O)OC3(C)C)CN1C(=O)c1ccccc1-n1ncnn1 [Example 21, 1,1-Dimethyl-4-{[(3R,6R)-6-methyl-1-{[2-(2H-tetrazol-2-yl)phenyl]carbonyl}piperidin-3-yl]oxy}furo[3,4-c]pyridin-3(1H)-one] | 0.109 | 10 |
